Columns and labels:
[1] = molecular target: T1, Proteinase-activated receptor 1 (Homo sapiens) (UniProt P25116); assay: Antagonist activity at human PAR1 expressed in KNRK cells assessed as inhibition of agonist-induced intracellular calcium mobilization at 10^-7 M by fluorimetric assay relative to control; type: functional, cell-based
T1 sequence (whole entry): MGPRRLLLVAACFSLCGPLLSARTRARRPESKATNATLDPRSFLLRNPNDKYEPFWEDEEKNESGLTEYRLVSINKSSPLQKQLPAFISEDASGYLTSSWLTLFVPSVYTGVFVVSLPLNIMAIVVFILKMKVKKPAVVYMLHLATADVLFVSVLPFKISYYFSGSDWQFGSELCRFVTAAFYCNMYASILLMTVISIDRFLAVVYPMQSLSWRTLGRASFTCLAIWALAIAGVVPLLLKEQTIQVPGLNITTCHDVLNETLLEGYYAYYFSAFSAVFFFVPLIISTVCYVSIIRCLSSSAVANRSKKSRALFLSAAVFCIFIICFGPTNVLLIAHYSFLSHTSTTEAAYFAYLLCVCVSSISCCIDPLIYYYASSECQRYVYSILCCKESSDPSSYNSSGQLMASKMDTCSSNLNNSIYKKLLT

[2] = molecular target: T1, Proteinase-activated receptor 1 (Homo sapiens); assay: Antagonist activity at human PAR1 expressed in KNRK cells assessed as inhibition of agonist-induced intracellular calcium mobilization at 10^-6 M by fluorimetric assay relative to control; type: functional, cell-based
[3] = molecular target: T1, Proteinase-activated receptor 1 (Homo sapiens); assay: Antagonist activity at human PAR1 expressed in KNRK cells assessed as inhibition of agonist-induced intracellular calcium mobilization at 10^-5 M by fluorimetric assay relative to control; type: functional, cell-based
[4] = molecular target: T2, Proteinase-activated receptor 1 (Homo sapiens, UniProt P25116); assay: Antagonist activity at human PAR1 expressed in KNRK cells assessed as inhibition of agonist-induced intracellular calcium mobilization by fluorimetric assay; type: functional, cell-based
T2 sequence (P25116 whole entry): T1 sequence (whole entry)

[5] = Half life in Sprague-Dawley rat at 5 mg/kg, po or 1 mg/kg, iv; type: ADME, organism-based; conditions: in vivo
[6] = AUC (0 to infinity) in Sprague-Dawley rat at 5 mg/kg, po or 1 mg/kg, iv; type: ADME, organism-based; conditions: in vivo
[7] = Cmax in Sprague-Dawley rat at 5 mg/kg, po or 1 mg/kg, iv; type: ADME, organism-based; conditions: in vivo
[8] = Oral bioavailability in Sprague-Dawley rat at 5 mg/kg; type: ADME, organism-based; conditions: in vivo
[9] = Ratio of drug concentration in brain to plasma in Sprague-Dawley rat at 5 mg/kg, po measured at 8 hrs; type: ADME, organism-based; conditions: read-out: BPR

Row | Structure (SMILES) | inhibition [1] | inhibition [2] | inhibition [3] | IC50 [4] | half-life [5] | AUC(0-inf) [6] | Cmax [7] | bioavailability [8] | Kp at 8 h [9]
1 | C[C@H]1OC(=O)[C@]2(NCC(=O)O)C[C@@H]3CCCC[C@H]3[C@H](/C=C/c3ccc(-c4cccc(F)c4)cn3)[C@H]12 | 23% | 61% | 100% | 1100 nM | 2.9 h | 5000 ng·h/mL | 1140 ng/mL | 70% | 0.68
2 | C[C@H]1OC(=O)[C@@H]2C[C@@H]3C[C@H](Nc4nc5ccccc5o4)CC[C@H]3[C@H](/C=C/c3ccc(-c4cccc(F)c4)cn3)[C@H]12 | 3% | 28% | 81% | – | – | – | – | – | –
3 | CCOC(=O)N[C@@H]1CC[C@@H]2[C@@H](C1)C[C@H]1C(=O)O[C@H](C)[C@H]1[C@H]2/C=C/c1ccc(-c2cccc(F)c2)cn1 [VORAPAXAR] | 25% | 99% | 101% | 250 nM | 4 h | 3500 ng·h/mL | 440 ng/mL | 94% | 1.08
4 | CCOC(=O)CN[C@@]12C[C@@H]3CCCC[C@H]3[C@H](/C=C/c3ccc(-c4cccc(F)c4)cn3)[C@@H]1[C@@H](C)OC2=O | -5% | 81% | 101% | – | – | – | – | – | –
5 | CCOC(=O)N[C@@H]1CC[C@@H]2[C@@H](C1)C[C@H]1C(=O)O[C@H](C)[C@H]1[C@H]2/C=C/c1ccc(-c2ccccn2)cc1 | 5% | 40% | 66% | 550 nM | 5 h | 7100 ng·h/mL | 710 ng/mL | 44% | 0.54
6 | C[C@H]1OC(=O)[C@@H]2C[C@@H]3C[C@H](NCC#N)CC[C@H]3[C@H](/C=C/c3ccc(-c4cccc(F)c4)cn3)[C@H]12 | 44% | 71% | 99% | 180 nM | 6.4 h | 6390 ng·h/mL | 580 ng/mL | 98% | 0.38

Results, then the compound that gave them:

Row | inhibition [1] | inhibition [2] | inhibition [3] | IC50 [4] | half-life [5] | AUC(0-inf) [6] | Cmax [7] | bioavailability [8] | Kp at 8 h [9] | Structure (SMILES)
7 | 13% | 34% | 48% | – | – | – | – | – | – | C[C@H]1OC(=O)[C@@H]2C[C@@H]3C[C@H](NCC(=O)O)CC[C@H]3[C@H](/C=C/c3ccc(-c4cccc(F)c4)cn3)[C@H]12
8 | 20% | 98% | 101% | 610 nM | 6.7 h | 860 ng·h/mL | 110 ng/mL | 23% | 1.13 | Cc1ccnc(N[C@@H]2CC[C@@H]3[C@@H](C2)C[C@H]2C(=O)O[C@H](C)[C@H]2[C@H]3/C=C/c2ccc(-c3cccc(F)c3)cn2)n1
9 | -7% | 26% | 42% | – | – | – | – | – | – | CCOC(=O)N[C@@H]1CC[C@@H]2[C@@H](C1)C[C@H]1C(=O)O[C@H](C)[C@H]1[C@H]2/C=C/c1ccc(-c2cccc(F)c2)cc1
10 | -4% | 92% | 99% | 760 nM | 8.5 h | 5140 ng·h/mL | 2310 ng/mL | 34% | 0.35 | C[C@H]1OC(=O)[C@]2(NCC#N)C[C@@H]3CCCC[C@H]3[C@H](/C=C/c3ccc(-c4cccc(F)c4)cn3)[C@H]12

— ChEMBL document CHEMBL4627316, “Design and synthesis of potent PAR-1 antagonists based on vorapaxar” (Bioorg Med Chem Lett, 2020)
